Values of other authors as cited in patent US6472222B2, “Method of estimating rate of nicotine metabolism in individuals” (Via Christi Research, Inc., priority 1999, dated 2002).

| half-life (plasma) | Structure (SMILES) | half-life (biphasic elimination, second phase) (biphasic elimination, longer of two half-lives) | half-life (biphasic elimination, first, short phase) (biphasic elimination, shorter of two half-lives) |
| --- | --- | --- | --- |
| approximately 19 hours | CN1C(=O)CC[C@H]1c1cccnc1 [cotinine] |  |  |
|  | CN1CCCC1c1cccnc1 (stereo not drawn) [nicotine] | ~2 h | approximately 10 minutes |
